Assay [1] addresses T1, ubiquinol:cytochrome c oxidoreductase (complex III), BH‐SMP (Bos taurus, UniProt P00125+P00157+P13272).
T1 construct: from tissue; host or cells: bovine heart submitochondrial particles (BH-SMP)
Nature of the assay: dUQH2:cyt c3+ oxidoreductase (complex III) activity in BH‐SMP. Format: biochemical, bovine. As for the experimental part: (§1) To measure the ubiquinol:cyt c ^3+ oxidoreductase (complex III) activity, the reduction of 100 μM cyt c ^3+ at 550 nm using 540 nm as reference was monitored in the presence of the artificial substrate decylubiquinol (dUQH2, 75 μM), which was prepared from dUQ by reduction (Müllebner et al., 2010). The dUQH2:cyt c ^3+ oxidoreductase activities of 40 μg protein/ml of LtP‐Mit or 3.2 μg protein/ml of BH‐SMP were measured in 1 ml of buffer containing 250 mM sucrose, 50 mM KH2PO4, 0.2 mM EDTA (pH 7.2), 2 mM KCN, and 4 mM NaN3. Respective EO compounds were added 50 s after starting the time scan, and the reaction was started after 100 s with dUQH2 and was monitored for additional 150 s. The activity of noninhibited dUQH2:cyt c ^3+ oxidoreductase activity was measured in the presence of the vehicle for the respective inhibitor (DMSO). All inhibitor concentrations were tested in triplicate. The reduction rates for cyt c ^3+ were calculated from the time trace of the absorption difference at 550 − 540 nm (ε550–540 nm = 19 mmol^−1 L cm^−1). Reduction rates in the presence of DMSO (maximum amount that was introduced by test compound stocks) were set to 100%, and the remaining activities in the presence of EO compounds were expressed in %. Three replicates were measured for each concentration.

The subject of assay [2] is Leishmania amazonensis promastigotes (LaP). Set-up: method as in Monzote, Garcia, et al., 2014. Particulars: ref Monzote, Garcia, et al., 2014, cited from earlier work; for IC50: previous study, read-out: IC50 against LaP.
Assay [3] has as its target T2, succinate:ubiquinone oxidoreductase (complex II), BH‐SMP (Bos taurus, UniProt P31039+P35720+Q3T189+Q95123).
T2 construct: from tissue; host or cells: bovine heart submitochondrial particles (BH-SMP)
Nature of the assay: Succinate:ubiquinone oxidoreductase (complex II) activity in BH‐SMP, DCPIP. It counts as biochemical, bovine. As for the experimental part: (§2) NADH:ubiquinone oxidoreductase (complex I) and succinate:ubiquinone oxidoreductase (complex II) activities were determined in 96 well‐plates using DCPIP as the electron acceptor. In each well, 200 μl of premix containing buffer (250 mM sucrose, 20 mM triethanolamine, and 1 mM EDTA, pH 7.4), DCPIP (60 μM), BSA (3.5 mg/ml for complex I and 1 mg/ml for complex II), idebenone (50 μM), and LtP‐Mit (complex I 0.17 μg/ml protein and complex II: 51 μg/ml protein) or BH‐SMP (complexes I and II: 8 μg/ml protein) were added. In addition, in the first wells, 97 μl of premix and 3 μl of EO compounds were added. Then six serial 1:3 dilutions were carried out transferring 100 μl in each step. The reaction was started by adding 50 μl of start‐mix per well, giving final concentrations of KCN (1 mM), for complex I:NADH (300 μM) or complex II:succinate (4 mM). After start of the reaction, images of the plates were recorded with a Canon EOS 300D camera (PLReader software, red–green channel) each 10 min for LtP‐Mit and 3 min for BH‐SMP (20 absorbance measurements). For each EO compound, percentage of inhibition was obtained with respect to controls (set to 100%) treated with maximum volume of vehicle (DMSO) introduced by test compound stocks.

In assay [4] the target is ubiquinol:cytochrome c oxidoreductase (complex III), LtP‐Mit (Leishmania tarentolae, UniProt A0A640KA58+A0A640KYQ2+P14548). Nature of the assay: dUQH2:cyt c3+ oxidoreductase (complex III) activity in LtP‐Mit. It counts as biochemical. How it is done:
as §1

The target of assay [5] is T3, cytochrome bc 1 complex purified from Saccharomyces cerevisiae (Saccharomyces cerevisiae, UniProt P00163+P07143+P08067).
T3 construct: endogenous in cells; host or cells: Native complex purified in house from yeast submitochondrial particles (Triton X-100, hydroxyapatite)
Nature of the assay: dUQH2:cyt c3+ oxidoreductase activity of isolated ScY‐bc 1. Format: biochemical. As for the experimental part: (§3) Cytochrome bc 1 complex was obtained from ScY‐SMP and BH‐SMP following published methodology (Geier, Schägger, Brandt, Colson, & von Jagow, 1992) with minor modifications as described below. SMP were resuspended in 1.1% Triton X‐100 and […] phenylmethylsulfonyl fluoride, pH 7.2, and centrifuged for 1 hr at 100,000 g. The bc 1 complex in the sediment was solubilized with 2.2% Triton X‐100, 600 mM NaCl, 10 mM KH2PO4, and 10 mM EDTA, pH 7.2. After centrifugation at 100,000 g for 1 hr, the supernatant was mixed with 50 ml of hydroxyapatite, equilibrated with 0.5% Triton X‐100, 250 mM NaCl, and 100 mM NaHPO4, pH 7.2. After washing the hydroxyapatite with 50 ml of equilibration buffer ([…], 100 mM NaHPO4, and 250 mM NaCl), the bc 1 complexes from ScY‐SMP and BH‐SMP (ScY‐bc 1 and BH‐bc 1, respectively) were eluted from hydroxyapatite with 250 mM KH2PO4 and 0.25% Triton X‐100, pH 7.2, and stored in liquid nitrogen.
as §1, with “Reduction rates in the presence of DMSO (maximum amount that was introduced by test compound stocks) were set to 100%, and the remaining activities in the presence of EO compounds were expressed in %.” left out, “concentration. […]” for “concentration.”

Assay [6] deals with T4, cytochrome bc 1 complex purified from Bos taurus (Bos taurus, UniProt P00125+P00157+P13272).
T4 construct: from tissue; host or cells: Native complex purified in house from bovine heart submitochondrial particles (Triton X-100, hydroxyapatite)
Nature of the assay: dUQH2:cyt c3+ oxidoreductase activity of isolated BH‐bc 1. Format: biochemical. As for the experimental part: as §3
as §1, with “Reduction rates in the presence of DMSO (maximum amount that was introduced by test compound stocks) were set to 100%, and the remaining activities in the presence of EO compounds were expressed in %.” left out, “concentration. […]” for “concentration.”

Assay [7] concerns Leishmania tarentolae promastigotes (LtP). Nature of the assay: Viability of LtP treated with EO main components (resazurin). Format: cell-based. As for the experimental part: LtP (200 μl, 2 × 10^6 parasites/ml) in YEM/phosphate‐buffered saline (PBS; 1:1 vol/vol, including antibiotics and 6 μM hemin) were distributed in 96‐well plates (nontreated plates). Compound stocks (in DMSO, max. 2% final concentration) were added, and five 1:3 serial dilutions were performed. Control rows with YEM/PBS (no activity) and with untreated LtP (vehicle, DMSO; 100% activity) were loaded, and the plate was incubated at 26 °C for 48 hr. Then resazurin (50 μl in PBS) was added (20 μM final concentration), and after 4 hr of incubation at 26 °C, the fluorescence of […] was measured at 560 nm excitation and 590 nm emission using a plate reader (PerkinElmer Enspire, Germany). Each compound was tested in triplicate.

Assay [8] addresses NADH:ubiquinone oxidoreductase (complex I), BH‐SMP (Bos taurus, UniProt P03887+P17694+P42026). It counts as biochemical, bovine. Particulars: for IC50: read-out: IC50 Complex I BH‐SMP. As for the experimental part:
as §2

[9] abbreviates: read-out: IC50 Complex III BH‐SMP.
The mark [10] stands for this setting: read-out: IC50 Complex II BH‐SMP.
Setting [11] is: mean ± SD, three experiments, read-out: IC50 Complex III LtP‐Mit.
Where [12] appears, read: immediate inhibition, five experiments, read-out: IC50 ± SD ScY‐bc 1.
The mark [13] stands for this setting: immediate inhibition, five experiments, read-out: IC50 ± SD BH‐bc 1.
Setting [14] is: 48 hr at 26 °C, resazurin, n = 3, read-out: IC50, viability of LtP.

SMILES strings stand for the structures. Like-named read-outs stand apart in the source and are kept apart here.

T2 sequence (P31039 45-665 limits assumed): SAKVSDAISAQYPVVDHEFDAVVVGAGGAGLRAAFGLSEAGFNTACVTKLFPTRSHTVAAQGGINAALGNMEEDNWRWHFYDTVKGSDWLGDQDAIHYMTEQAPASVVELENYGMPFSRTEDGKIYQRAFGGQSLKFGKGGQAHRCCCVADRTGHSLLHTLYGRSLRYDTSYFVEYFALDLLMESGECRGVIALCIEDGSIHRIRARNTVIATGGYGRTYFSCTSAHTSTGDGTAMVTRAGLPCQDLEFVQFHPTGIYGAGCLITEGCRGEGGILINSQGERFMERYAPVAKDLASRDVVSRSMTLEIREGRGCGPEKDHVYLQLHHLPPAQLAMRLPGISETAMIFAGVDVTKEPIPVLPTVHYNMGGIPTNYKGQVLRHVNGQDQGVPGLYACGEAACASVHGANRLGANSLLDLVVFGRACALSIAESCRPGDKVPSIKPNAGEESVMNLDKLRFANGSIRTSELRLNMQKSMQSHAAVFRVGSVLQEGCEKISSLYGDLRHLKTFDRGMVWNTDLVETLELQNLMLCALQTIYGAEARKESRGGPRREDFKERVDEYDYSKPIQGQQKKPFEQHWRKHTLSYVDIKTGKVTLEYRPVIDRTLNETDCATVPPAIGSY
T2 sequence (Q3T189 29-280): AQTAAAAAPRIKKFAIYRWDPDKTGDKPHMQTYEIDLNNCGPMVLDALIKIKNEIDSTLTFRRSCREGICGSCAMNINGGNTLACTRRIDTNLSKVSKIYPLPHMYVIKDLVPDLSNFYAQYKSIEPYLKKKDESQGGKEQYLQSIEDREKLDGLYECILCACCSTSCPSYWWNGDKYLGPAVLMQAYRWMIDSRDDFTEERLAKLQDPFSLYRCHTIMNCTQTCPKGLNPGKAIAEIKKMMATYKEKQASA
T2 sequence (P35720 30-169): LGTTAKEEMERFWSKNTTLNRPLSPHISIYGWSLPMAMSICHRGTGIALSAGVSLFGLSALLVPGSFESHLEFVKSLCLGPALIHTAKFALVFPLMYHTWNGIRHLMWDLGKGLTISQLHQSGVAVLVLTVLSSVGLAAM
T2 sequence (Q95123 56-158): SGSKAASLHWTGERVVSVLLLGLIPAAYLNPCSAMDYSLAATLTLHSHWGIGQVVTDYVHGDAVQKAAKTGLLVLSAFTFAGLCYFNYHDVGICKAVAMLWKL
Chain of ubiquinol:cytochrome c oxidoreductase (complex III), LtP‐Mit (P14548 whole entry): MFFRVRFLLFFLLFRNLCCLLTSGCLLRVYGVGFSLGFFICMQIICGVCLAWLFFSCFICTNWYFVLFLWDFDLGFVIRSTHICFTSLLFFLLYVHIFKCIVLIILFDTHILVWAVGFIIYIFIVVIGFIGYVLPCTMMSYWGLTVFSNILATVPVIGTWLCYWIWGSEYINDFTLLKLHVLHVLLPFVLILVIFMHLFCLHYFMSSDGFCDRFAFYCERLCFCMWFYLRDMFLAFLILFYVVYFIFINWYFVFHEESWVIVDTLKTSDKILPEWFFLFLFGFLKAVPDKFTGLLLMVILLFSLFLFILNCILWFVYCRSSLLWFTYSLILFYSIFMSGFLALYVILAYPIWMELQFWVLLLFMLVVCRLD
Chain of ubiquinol:cytochrome c oxidoreductase (complex III), LtP‐Mit (A0A640KA58 entry or part of it): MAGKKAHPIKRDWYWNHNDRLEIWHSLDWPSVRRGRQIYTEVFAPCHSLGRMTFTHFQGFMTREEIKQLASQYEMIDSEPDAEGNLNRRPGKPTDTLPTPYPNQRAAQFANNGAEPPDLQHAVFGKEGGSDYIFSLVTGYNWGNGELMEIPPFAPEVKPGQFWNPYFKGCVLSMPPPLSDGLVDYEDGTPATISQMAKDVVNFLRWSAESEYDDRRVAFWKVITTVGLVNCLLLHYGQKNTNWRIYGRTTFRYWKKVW
Chain of ubiquinol:cytochrome c oxidoreductase (complex III), LtP‐Mit (A0A640KYQ2 entry or part of it): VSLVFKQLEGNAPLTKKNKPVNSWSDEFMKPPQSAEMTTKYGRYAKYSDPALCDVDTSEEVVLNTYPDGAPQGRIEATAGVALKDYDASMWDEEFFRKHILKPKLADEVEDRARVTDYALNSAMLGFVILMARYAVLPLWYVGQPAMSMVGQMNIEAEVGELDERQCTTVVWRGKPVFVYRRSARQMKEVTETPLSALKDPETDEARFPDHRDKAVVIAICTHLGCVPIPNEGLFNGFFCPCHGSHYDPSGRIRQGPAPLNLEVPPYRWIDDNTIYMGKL

The term IC50 denotes the concentration that inhibits the measured activity by half. As for `CC(C)C12C=CC(C)(CC1)OO2` (stereo not drawn) [Asc, ascaridole], the IC50 in assay [1] is above 100 µM; in assay [2] it was 0.6 ± 0.06 µM; in assay [3], above 100 µM; in assay [4] it was 131 ± 3.5 µM; in assay [5] it was 675 ± 6 µM; in assay [6], 381 ± 9 µM. Further, the IC50 in assay [7] (48 h, read-out: IC50, viability of LtP) was 24.5 ± 3 µM; in assay [8] it was above 100 µM. The “% of inhibition at highest concentration tested, Complex III BH‐SMP” value in assay [1] was 17.7%. Besides, the “IC50 values for L. amazonensis in the presence of iron chelators” value in assay [2] (with iron chelators) was “strongly increased”. Moreover, the “% of inhibition at highest concentration tested, Complex II BH‐SMP” value (shortened to “% of inhibition … Complex II BH‐SMP”) in assay [3] is reported as 21.2%. In addition, the “% of inhibition at highest concentration tested, Complex I BH‐SMP” value (shortened to “% of inhibition … Complex I BH‐SMP”) in assay [8] is given as 5.1%.
Consider `Cc1ccc(C(C)C)cc1O` [Car, carvacrol], for which, in assay [1], the “% of inhibition at highest concentration tested, Complex III BH‐SMP” value turned out to be 22.8%. For the same molecule, the IC50 in assay [1] (setting [9]) is above 100 µM; in assay [2], 101 ± 30 µM; in assay [3] (setting [10]), above 100 µM; in assay [4] (setting [11]), 150 ± 2.3 µM; in assay [5] (setting [12]) it was 941 ± 41 µM; in assay [6] (setting [13]) it was 421 ± 4 µM. Also, the figures for the IC50 in assay [7] (setting [14]) and in assay [8] were 11.6 ± 3.4 µM and above 100 µM, respectively. Also, in assay [3], the “% of inhibition … Complex II BH‐SMP” value stood at 21.5%. Besides, the “% of inhibition … Complex I BH‐SMP” value in assay [8] was determined as 13.3%.
As for `C=C1CC[C@H]2O[C@]2(C)CC[C@@H]2[C@@H]1CC2(C)C` [Caryo, caryophyllene oxide], the IC50 was above 100 µM in assay [1] (setting [9]); 22.2 ± 10.4 µM in assay [2]; above 100 µM in assay [3] (setting [10]); 54.8 ± 4 µM in assay [4] (setting [11]); 179 ± 1 µM in assay [5] (setting [12]); 197 ± 1 µM in assay [6] (setting [13]). The figures for the IC50 in assay [7] (setting [14]) and in assay [8] were 36 ± 17.6 µM and above 100 µM, respectively. In addition, the “% of inhibition … Complex II BH‐SMP” value in assay [3] came to 16.3%. For the same molecule, in assay [8], the “% of inhibition … Complex I BH‐SMP” value is 39.7%.
